According to patent US7087253B2 (AKH Arzneimittelkontor GmbH, priority 2002, dated 2006):

Test system: patients with acute bronchitis
Assay: double blind, randomized, placebo-controlled clinical study, 14-day treatment of acute bronchitis
Assay type: in vivo
Procedure: A parallel group of patients was treated for 14 days correspondingly with placebo or cefuroxime.

CO/N=C(\C(=O)N[C@@H]1C(=O)N2C(C(=O)O)=C(COC(N)=O)CS[C@H]12)c1ccco1 [cefuroxime]
patients still with a pathological ausculatory finding (after 7±2 treatment days): 26.3%
patients who experienced a worsening of the symptoms (terminations because of a worsening of the acute bronchitis) (after 7±2 treatment days): 7.6%
patients with worsening of the acute bronchitis (after 14±2 treatment days): 16.4%
patients with worsening, times as many as in the Eucalyptus oil/orange oil group (after 14±2 treatment days): 10 times
patients still with a pathological ausculatory finding (pathological respiratory sounds) (after 14±2 days): 7.6%
general state of health, Eucalyptus oil/orange oil group versus cefuroxime group (human, in vivo): no differences worth mentioning
